# Assays:
# [1] = tested on: human iNKT cells; assay: Recognition by human iNKT cells (Table 3 comments); format: cell-based
# [2] = tested on: iNKT cells; assay: Activity in vitro of ceramide-like glycolipid antigens (Table 3); format: cell-based, mouse; conditions: partly also in vivo
# Description: The ability of a composition of the present invention to modulate an immune response can be readily determined by an in vitro assay. NKT cells for use in the assays include transformed NKT cell lines, or NKT cells which are isolated from a mammal, e.g., from a human or from a rodent such as a mouse. NKT cells can be isolated from a mammal by sorting cells that bind CD1d:α-GalCer tetramers.
# The NKT cells employed in the assays are incubated under conditions suitable for proliferation. […] Serial dilutions of the compound can be added to the NKT cell culture medium.
# (§1) Alternatively, rather than measurement of an expressed protein such as IL-4 or IFN-γ, modulation of NKT cell activation can be determined by changes in antigen-dependent T cell proliferation as measured by radiolabelling techniques as are recognized in the art. For example, a labeled (e.g., tritiated) nucleotide may be introduced to an assay culture medium. Incorporation of such a tagged nucleotide into DNA serves as a measure of T cell proliferation. […] A difference in the level of T cell proliferation following contact with the compound of the invention indicates the complex modulates activity of the T cells. For example, a decrease in NKT cell proliferation indicates the compound can suppress an immune response. An increase in NKT cell proliferation indicates the compound can stimulate an immune response.
# [3] = tested on: mouse iNKT hybridoma; assay: iNKT hybridoma stimulation assay (Table 3 comments); format: cell-based
# Text: (§2) The ability of a composition of the present invention to modulate an immune response can be readily determined by an in vitro assay. NKT cells for use in the assays include transformed NKT cell lines, or NKT cells which are isolated from a mammal, e.g., from a human or from a rodent such as a mouse. NKT cells can be isolated from a mammal by sorting cells that bind CD1d:α-GalCer tetramers. See, for example, Benlagha et al., J Exp Med 191 (2000), pp. 1895-1903; Matsuda et al., J Exp Med 192 (2000), pp. 741-754; and Karadimitris et al., Proc Natl Acad Sci USA 98 (2001), pp. 3294-3298. A suitable assay to determine if a compound of the present invention is capable of modulating the activity of NKT cells is conducted by coculturing NKT cells and antigen presenting cells, adding the particular compound of interest to the culture medium that targets either the antigen presenting cells or the NKT cells directly, and measuring IL-4 or IFN-γ production. A significant increase or decrease in IL-4 or IFN-γ production over the same co-culture of cells in the absence of the compound of the invention or, preferably, in the presence of a compound of the invention with a non-targeting antibody indicates stimulation or inhibition of NKT cells.
# The NKT cells employed in the assays are incubated under conditions suitable for proliferation. For example, an NKT cell hybridoma is suitably incubated at about 37° C. and 5% CO2 in complete culture medium (RPMI 1640 supplemented with 10% FBS, penicillin/streptomycin, L-glutamine and 5×10−5 M 2-mercaptoethanol). Serial dilutions of the compound can be added to the NKT cell culture medium.
# [4] = tested on: SLE in NZB/W F1 mice; assay: SLE in NZB/W F1 mice (Table 3 comments); format: in vivo, mouse
# [5] = tested on: iNKT cells; assay: Activity in vivo of ceramide-like glycolipid antigens, serum cytokine response (Table 3); conditions: serum cytokines
# Text: In vivo assays also may be suitably employed to determine the ability of a composition of the invention to modulate the activity of NKT cells. For example, a composition of interest can be assayed for its ability to stimulate NKT cell activation or inhibit tumor growth. For example, a composition of the invention can be administered to a mammal such as a mouse, before or after challenge with a tumorigenic dose of transformed cells and the presence or size of growing tumors may be monitored.
# [6] = tested on: splenocytes; assay: Splenocyte stimulation assay: proliferation and cytokine secretion (Table 3 comments); format: cell-based, mouse; conditions: for Comments: cytokine secretion (IL-4, IFNγ): cytokine secretion assays; for Comments: IL-4 relative to IFNγ: in vitro with splenocytes from NZB/W F1 mice
# Text: as §2, §1
# [7] = tested on: iNKT cells; conditions: reported by others, in vivo IFNγ; cited from earlier work
# [8] = tested on: mouse iNKT hybridoma / human CD1d + HeLa cells; assay: Presentation to mouse iNKT hybridoma by human CD1d + HeLa cells (Table 3 comments); format: cell-based
smiles,measurement,setting,value
"CCCCCCCCCCCCCCCCCCCCCCCC(=O)N[C@@H](COC1OC(CO)C(O)C(O)C1O)[C@H](O)[C@H](O)CCCCC (stereo partly drawn) [AH04-1, reference compound]",Comments: recognition by human iNKT cells,[1],seems NOT to be recognized by human iNKT cells
same,Comments: iNKT agonist activity and cytokine profile in words,[2],"Weaker agonist than DB03-4 in our hands, and skewing of cytokine response not very impressive in most assays"
CCCCCCCCCCCCCCCCCCCCCCCC(=O)N[C@@H](COC1OC(CO)C(O)C(O)C1O)[C@H](O)CCCCCC (stereo partly drawn) [AH04-2],Comments: activity in iNKT hybridoma stimulation assay,[3],About a half log more potent than OCH in hybridoma stimulation assay
CCCCCCCCCCCCCCCCCCCCCCCC(=O)N[C@@H](COC1OC(CO)C(O)C(O)C1O)[C@H](O)[C@H](O)CCCCCCCCCCCCCC (stereo partly drawn) [DB02-1],Comments: iNKT agonist activity and cytokine profile in words,[2],"Moderate to weak iNKT agonist in vitro and in vivo. Gives reasonably strong early IL-4 response, with reduced late IFNγ like DB03-4 or OCH."
CCCC/C=C\C/C=C\CCCCCCCCCC(=O)N[C@@H](COC1OC(CO)C(O)C(O)C1O)[C@H](O)[C@H](O)CCCCCCCCCCCCCC (stereo partly drawn) [DB03-4],Comments: iNKT agonist activity and cytokine profile in words,[2],"“Type 2 Cytokine bias”: Strong inducer of iNKT cell IL-4 response, with blunted IFNγ and NK cell transactivation."
CCCCC/C=C\C/C=C\C/C=C\C/C=C\CCCC(=O)N[C@@H](COC1OC(CO)C(O)C(O)C1O)[C@H](O)[C@H](O)CCCCCCCCCCCCCC (stereo partly drawn) [DB03-5],Comments: iNKT agonist activity and cytokine profile in words,[2],"“Type 2 Cytokine bias”: Strong inducer of iNKT cell IL-4 response, with blunted IFNγ and NK cell transactivation."
CCCCCCCCCCCCCCCCCCCCCCCC(=O)N[C@@H](COC1OC(C)[C@@H](O)C(O)C1O)[C@H](O)[C@H](O)CCCCCCCCCCCCCC (stereo partly drawn) [DB03-8],Comments: effect on SLE,[4],exacerbates SLE in NZB/W F1 mice
same,Comments: in vivo cytokine response in words,[5],No serum cytokine response in vivo
same,Comments: iNKT agonist activity and cytokine profile in words,[2],Weak iNKT agonist activity in vitro
"CCCCCCCCCCCCCCCCCCCCCCCCCC(=O)N[C@@H](COC1OC(CO)C(O)C(O)C1O)[C@H](O)[C@H](O)CCCCCCCCCCCCCC (stereo partly drawn) [DB04-1 (KRN 7000), reference compound]",Comments: iNKT agonist activity and cytokine profile in words,[2],"KRN7000. Strong agonist, mixed IL-4 and IFNγ response both in vivo and in vitro."
CCCCC/C=C\C=C\CCCCCCCCC(=O)N[C@@H](COC1OC(CO)C(O)C(O)C1O)[C@H](O)[C@H](O)CCCCCCCCCCCCCC (stereo partly drawn) [DB05-9],Comments: iNKT agonist activity and cytokine profile in words,[2],A potent Th2-biased agonist in vitro. Not tested yet in vivo (122206)
CCCCCC/C=C\C=C/CCCCCCCC(=O)N[C@@H](COC1OC(CO)C(O)C(O)C1O)[C@H](O)[C@H](O)CCCCCCCCCCCCCC (stereo partly drawn) [DB05-11],Comments: splenocyte proliferation,[6],possibly more active in proliferation assay
same,Comments: iNKT agonist activity and cytokine profile in words,[2],A potent Th2-biased analogue similar to DB05-9
CCCCC\C=C/C=C/C=C/CCCCCCC(=O)N[C@@H](COC1OC(CO)C(O)C(O)C1O)[C@H](O)[C@H](O)CCCCCCCCCCCCCC (stereo partly drawn) [DB05-14],"Comments: cytokine secretion (IL-4, IFNγ)",[6],strong IL-4 secretion bias
same,Comments: splenocyte proliferation,[6],Very active in prolif
CCCC/C=C/C=C/C=C\CCCCCCCC(=O)N[C@@H](COC1OC(CO)C(O)C(O)C1O)[C@H](O)[C@H](O)CCCCCCCCCCCCCC (stereo partly drawn) [DB05-17],"Comments: cytokine secretion (IL-4, IFNγ)",[6],moderately strong in cytokine secretion assays with moderate IL-4 predominance
same,Comments: splenocyte proliferation,[6],Weak in splenocyte prolif
CCCCCCCCCCCCCCCCCCCCCCCCCC(=O)N[C@@H](COC1OC(C)[C@@H](O)C(O)C1O)[C@H](O)[C@H](O)CCCCCCCCCCCCCC (stereo partly drawn) [DB06-14],"Comments: cytokine secretion (IL-4, IFNγ)",[6],moderate IL-4 secretion at high concentration with weak IFNg
same,Comments: activity in splenocyte stimulation assay,[6]; overall activity,Weakly active in splenocyte stimulation in vitro
same,Comments: splenocyte proliferation,[6],Minimal or no prolif
CCCCC/C=C\C/C=C\CCCCCCCCCC(=O)N[C@@H](COC1OC(CO)C(O)C(O)C1O)[C@H](O)[C@H](O)CCCCCCCCCCCCCC (stereo partly drawn) [DB06-15],"Comments: cytokine secretion (IL-4, IFNγ)",[6],Weak IL-4 and even weaker INFg secretion
same,Comments: splenocyte proliferation,[6],Moderately active in splenocyte prolif
CCCCCCCCCCCCCCCCCCCCCCCCCC(=O)N[C@@H](CCC1OC(CO)C(O)C(O)C1O)[C@H](O)[C@H](O)CCCCCCCCCCCCCC (stereo partly drawn) [RF03-1],Comments: reported agonist activity,[7],"C-glycoside of KRN7000. Reported to be strong agonist, with enhanced IFNγ production in vivo. May have slower kinetics of activation."
"CCCCCCCCCCCCCCCCCCCCCCCCCC(=O)N[C@@H](CSC1OC(CO)C(O)C(O)C1O)[C@H](O)[C@H](O)CCCCCCCCCCCCCC (stereo partly drawn) [SKRN 7000, reference compound]",Comments: activity in iNKT hybridoma stimulation assay,[3],No agonist activity in iNKT hybridoma assay
same,Comments: autoreactivity of iNKT cell hybridoma,[3],seemed to reduce autoreactivity of iNKT cell hybridoma
CCCCCCCCCCCCCCCCCC(=O)N[C@@H](COC1OC(CO)C(O)C(O)C1O)[C@H](O)[C@H](O)CCCCCCCCCCCCCC (stereo partly drawn) [YTC03-15],Comments: activity when presented to mouse iNKT hybridoma by human CD1d + HeLa cells,[8],EXTREMELY active when presented to mouse iNKT hybridoma by human CD1d + HeLa cells
CCCCCCCCCCCCCC[C@@H](O)[C@@H](O)[C@H](COC1OC(CO)C(O)C(O)C1O)NC(=O)C(c1ccccc1)c1ccccc1 (stereo partly drawn) [YTC03-17],Comments: in vivo cytokine response in words,[5],no activity detectable in vivo (cytokine stimulation)
same,Comments: iNKT agonist activity and cytokine profile in words,[2],Very strong agonist in some in vitro studies
CCCCCCCCCCCCCC[C@@H](O)[C@@H](O)[C@H](COC1OC(CO)C(O)C(O)C1O)NC(=O)Cc1ccc(OC)c(OC)c1 (stereo partly drawn) [YTC03-24],Comments: IL-4 relative to IFNγ,[6],Possible enhanced IL-4 relative to IFNγ in vitro with splenocytes from NZB/W F1 mice
CCCCCCCCCCCCCC[C@@H](O)[C@@H](O)[C@H](COC1OC(CO)C(O)C(O)C1O)NC(=O)Cc1ccc(F)cc1 (stereo partly drawn) [YTC03-30],Comments: activity when presented to mouse iNKT hybridoma by human CD1d + HeLa cells,[8],EXTREMELY active
same,Comments: IL-4 relative to IFNγ,[6],Possible enhanced IL-4 relative to IFNγ
CCCCCCCCCCCCCC[C@@H](O)[C@@H](O)[C@H](COC1OC(CO)C(O)C(O)C1O)NC(=O)CCCCCCCCC (stereo partly drawn) [YTC03-34],Comments: activity in iNKT hybridoma stimulation assay,[3],Moderate activity with mouse iNKT hybridoma
same,Comments: in vivo cytokine response in words,[5],Active in vivo with good IL-4 production assoc. with weak IFNgamma and weak IL-12 p70

# Reference: patent US9603922B2, “Modulation of NKT cell activity with antigen-loaded CD1d molecules” (VACCINEX, INC., priority 2007, dated 2017)
